Results from patent US8633324B2, “Denibulin di-hydrochloride” (Medicinova, Inc., priority 2011, dated 2014).
Where a name gives a salt, the structure may show the parent alone.

What was measured:
[1] = Solubility of MN-029 di-hydrochloride in aqueous citric acid; format: physicochemical; settings: aqueous citric acid (4.75 mg/ml), 25° C., 12 hours shaking
From the text: Without being held to any particular theory, the present inventor believes that the enhanced solubility of the di-hydrochloride salt is enhanced by the lower pH of the resulting solution. That is, the reduced pH of a solution of the di-hydrochloride of MN-029 improves its aqueous solubility. To test this theory, the present inventor measured the solubility of MN-029 di-hydrochloride in aqueous citric acid and in citrate buffers at different pH values. Two samples of the di-hydrochloride salt in aqueous citric acid were prepared by adding 10 ml of an aqueous citric acid solution to 36.9 mg and 74.5 mg of MN-029 di-hydrochloride salt in a vial.
After equilibration with shaking at 25° C. for 12 hours, visual inspection of the solution in each vial indicated a clear colorless solution with no solid residue. Accordingly, the solubility MN-029 di-hydrochloride in aqueous citric acid (4.75 mg/ml) was calculated to exceed […] of the di-hydrochloride per milliliter of aqueous citric acid.

[2] = Log P, Log Pion, Log D by potentiometric titration (Sirius GlpKa, octanol:water); format: physicochemical; settings: octanol:ionic-strength adjusted water
From the text: Most drugs have an ideal log P value and any deviation from this idealized value results in reduced absorption, slow transport of drug to the site of action and consequently, a decrease in biological activity. Table 8, illustrates the predicted and measured values for partition coefficients of MN-029 di-hydrochloride. The data was collected by potentiometric titration using a Sirius GlpKa instrument using three ratios of octanol:ionic-strength adjusted water to generate Log P, Log Pion and Log D values and the raw data was analyzed using Refinement Pro Software V.1.0. The predicted value of Log P was obtained using ACD V. software and Syracuse KOWWIN V.1.67 softwares.

In the case of `COC(=O)Nc1nc2ccc(Sc3ccc(NC(=O)[C@H](C)N)cc3)cc2[nH]1` [MN-029 di-hydrochloride, carbamic acid N-[6-[[4-[[(2S)-2-amino-1-oxopropyl]amino]phenyl]thio]-1H-benzimidazol-2-yl]-methyl ester di-hydrochloride], the “solubility in aqueous citric acid” value [1] is reported as “exceed 7.54 mg of the di-hydrochloride per milliliter of aqueous citric acid”, the “Measured LogPion(cation)” value [2] is reported as 0.93 and the “Measured LogD7.4” value ([2]; pH 7.4) is reported as 2.10. The logD ([2]; pH 7.4, read-out: Measured LogD7.4) was 2.1 and the logP ([2]; read-out: Measured LogP) was 2.64.
